Results as given in patent US6676950B2, “Neurokinin receptor antagonists and methods of use thereof for inhibiting HIV infection” (The Children's Hospital of Philadelphia, priority 2001, dated 2004).

Tests used:
[1] = system: IL-6; assay: LPS-stimulated IL-6 production in MDM by ELISA; format: cell-based, human; conditions: 10^−9 to 10^−7M; LPS 1 ng/ml; 24 h
Method: (§1) In order to determine the role of CP-96,345 in the regulation of cytokine secretion, 7-day-cultured MDM were incubated with or without CP-96,345 (10^−9 to 10^−7M) and/or LPS (1 ng/ml) for 24 h. The culture supernatants were collected to determine TNF-A and IL-6 levels by ELISA. The ELISA kits were purchased from Endogen, Inc. (Woburn, Mass.).

[2] = system: SP mRNA; assay: SP mRNA expression in MDM by real-time RT-PCR; format: cell-based, human; conditions: 4 hours; percentage of untreated MDM
Method: FIG. 17. A graph showing the effect of CP-96,345 on SP mRNA expression in MDM. The MDM were incubated with (+) or without (−) the NK-1R antagonist at the indicated concentration for 4 hours. The SP mRNA levels were determined by a real-time RT-PCR. The SP mRNA levels in the CP-96,345 treated MDM are expressed as a percentage of that in untreated MDM which are defined as 100%.
The effect of CP-96,345 on SP mRNA expression in MDM was also determined. The MDM were incubated with (+) or without (−) the NK-1R antagonist at the indicated concentration for 4 hours. The SP mRNA levels were determined by a real-time RT-PCR.

[3] = system: HIV Bal strain; assay: HIV gag mRNA in infected MDM by RT-PCR / real time RT-PCR; format: cell-based; conditions: 12 days after infection
Method: HIV Infection: After 2 h incubation with or without the reagents described above, the cells were infected with equal amounts of cell-free HIV based on p24 antigen content (20 ng/10^6 cells) overnight, and then washed to remove unbound virus. Fresh media containing SP and/or CP-96,345 or anti-SP antibody were added to the MDM as described above. The culture media and the reagents were replaced twice weekly. The culture supernatants were harvested for HIV reverse transcriptase (RT) activity determinations. After HIV infection, the MDM were incubated for 8 to 12 days. At the termination of the experiments, cellular RNA was extracted for assessment of HIV gag gene expression using RT-PCR or real time RT-PCR assays.
Total RNA was isolated from human peripheral blood MDM (10^6 cells) using Tri-Reagent (Molecular Research Center, Cincinnati, Ohio) as we previously reported (16).
Reverse transcription: Total RNA (1 μg) was reverse transcribed using Reverse Transcription System (Promega, Madison, Wis.) with the specific primers (antisense) for HIV gag (5′-[…]-[…]-3′; SEQ ID NO: 1) (27) or CCR5 (5′-[…]-3′; SEQ ID NO: 2) (32) for 1 h at 42° C. RT reactions was terminated by incubating the reaction mixture at 99° C. for 5 min and then kept at 4° C. The resulting cDNA was used as a template for PCR amplification or real time PCR quantification. […]

[4] = system: TNF-α; assay: LPS-stimulated TNF-α production in MDM by ELISA; format: cell-based, human; conditions: 10^−9 to 10^−7M; LPS 1 ng/ml; 24 h
Method: as §1

COc1ccccc1CN[C@H]1C2CCN(CC2)[C@H]1C(c1ccccc1)c1ccccc1 [CP-96,345, [2S,3S)-cis-2-(diphenylmethyl)-N-[(2-methoxyphenyl)-methyl]-1-azabicyclo [[2.2.2]-octan-3-amine]]
IL-6 production in MDM [1]: not affected
SP mRNA expression in MDM (real-time RT-PCR) [2]: significantly inhibited
HIV gag mRNA expression (RT-PCR) ([3]; 10^−11 to 10^−7 M): potently inhibited
HIV gag gene mRNA copy numbers (real time RT-PCR) ([3]; same samples): significantly suppress
LPS-stimulated TNF-A production in MDM [4]: attenuated
